{"source": "patent US11918571B2", "about": "“Compounds and their methods of use” (Praxis Precision Medicines, Inc., priority 2017, dated 2024)", "target": "T1, human Nav1.6 (hNav1.6) (Homo sapiens, UniProt Q9UQD0)", "T1 construct": "expressed in transfected cells; host or cells: HEK-293 (G418 selection)", "T1 sequence (Q9UQD0 whole entry)": "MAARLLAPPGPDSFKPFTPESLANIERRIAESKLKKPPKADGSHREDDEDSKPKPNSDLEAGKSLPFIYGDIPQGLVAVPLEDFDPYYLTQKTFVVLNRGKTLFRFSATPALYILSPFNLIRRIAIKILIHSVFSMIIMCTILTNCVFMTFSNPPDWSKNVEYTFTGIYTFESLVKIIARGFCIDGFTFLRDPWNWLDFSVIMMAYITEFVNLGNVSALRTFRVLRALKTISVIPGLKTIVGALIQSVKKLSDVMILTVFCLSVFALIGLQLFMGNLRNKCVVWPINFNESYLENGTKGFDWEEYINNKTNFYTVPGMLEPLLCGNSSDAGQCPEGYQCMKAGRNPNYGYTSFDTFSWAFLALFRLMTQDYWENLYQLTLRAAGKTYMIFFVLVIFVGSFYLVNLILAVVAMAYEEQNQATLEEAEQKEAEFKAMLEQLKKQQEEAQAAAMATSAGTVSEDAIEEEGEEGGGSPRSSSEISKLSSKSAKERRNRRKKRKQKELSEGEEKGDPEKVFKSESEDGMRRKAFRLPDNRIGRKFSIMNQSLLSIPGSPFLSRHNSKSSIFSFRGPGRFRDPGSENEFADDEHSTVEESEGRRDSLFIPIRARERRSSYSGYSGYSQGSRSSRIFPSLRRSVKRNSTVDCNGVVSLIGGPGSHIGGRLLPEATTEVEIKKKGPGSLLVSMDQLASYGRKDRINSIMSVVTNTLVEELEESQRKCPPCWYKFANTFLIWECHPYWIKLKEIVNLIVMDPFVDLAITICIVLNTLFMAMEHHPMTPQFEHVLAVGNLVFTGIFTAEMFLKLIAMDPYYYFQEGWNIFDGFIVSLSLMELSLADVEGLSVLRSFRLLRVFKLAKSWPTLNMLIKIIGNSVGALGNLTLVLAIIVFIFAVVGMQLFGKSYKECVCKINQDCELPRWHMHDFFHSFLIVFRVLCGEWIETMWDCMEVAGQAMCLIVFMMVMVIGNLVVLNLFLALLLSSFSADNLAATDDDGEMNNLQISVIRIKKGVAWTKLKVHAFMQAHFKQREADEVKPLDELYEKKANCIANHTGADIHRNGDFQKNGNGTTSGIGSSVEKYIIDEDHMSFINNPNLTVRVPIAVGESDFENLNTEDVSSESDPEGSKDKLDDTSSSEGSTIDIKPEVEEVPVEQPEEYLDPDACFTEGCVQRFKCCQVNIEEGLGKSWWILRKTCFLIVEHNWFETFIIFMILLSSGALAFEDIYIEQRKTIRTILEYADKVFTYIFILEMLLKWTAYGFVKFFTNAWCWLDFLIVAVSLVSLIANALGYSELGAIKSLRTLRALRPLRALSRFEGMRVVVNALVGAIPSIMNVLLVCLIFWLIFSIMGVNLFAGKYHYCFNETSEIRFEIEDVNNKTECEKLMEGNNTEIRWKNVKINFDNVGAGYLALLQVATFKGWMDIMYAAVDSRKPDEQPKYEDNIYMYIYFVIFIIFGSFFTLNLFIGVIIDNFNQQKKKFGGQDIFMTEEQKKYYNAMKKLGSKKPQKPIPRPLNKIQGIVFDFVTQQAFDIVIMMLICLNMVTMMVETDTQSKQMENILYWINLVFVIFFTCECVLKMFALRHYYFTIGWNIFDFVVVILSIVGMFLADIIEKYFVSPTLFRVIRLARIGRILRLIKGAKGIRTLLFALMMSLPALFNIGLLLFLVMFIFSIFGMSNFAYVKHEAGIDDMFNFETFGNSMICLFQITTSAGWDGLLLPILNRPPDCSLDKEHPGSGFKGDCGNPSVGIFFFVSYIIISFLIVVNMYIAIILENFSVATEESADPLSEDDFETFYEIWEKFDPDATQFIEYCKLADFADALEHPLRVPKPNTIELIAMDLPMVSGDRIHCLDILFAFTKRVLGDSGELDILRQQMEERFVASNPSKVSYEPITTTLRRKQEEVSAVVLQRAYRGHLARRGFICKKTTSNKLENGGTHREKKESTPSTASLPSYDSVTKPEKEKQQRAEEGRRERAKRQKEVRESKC", "assay": "Modulation of late sodium current (INaL), PatchXpress electrophysiology, ATX-II evoked", "assay_type": "cell-based", "settings": "HEK293; 1 μM compound; HEK-293 cells expressing recombinant human Nav1.6; late current evoked by 300 nM ATX-II; read-out: INaL v1.6 (1 μM, % Inhibition)", "protocol": "Functional characterization of exemplary compounds to modulate INaL expressed by the Nav1.6 voltage-gated sodium channel was accomplished using the PatchXpress™ high throughput electrophysiology platform (Molecular Devices, Sunnyvale, CA). HEK-293 cells expressing recombinant, human Nav1.6 (hNav1.6) were grown in DMEM/high-glucose Dulbecco's modified, 10% FBS, 2 mM sodium pyruvate, 10 mM HEPES and 400 μg/mL G418. Cells were grown to 50%-80% confluency prior to harvesting. Trypsinized cells were washed, allowed to recover for 1 hour and then resuspended in extracellular recording solution at a concentration of 1×10^6 cells/ml. The onboard liquid handling facility of the PatchXpress was used for dispensing cells and applying test compounds. Nay late currents were evoked by the application of 300 nM ATX-II. INaL was evoked by depolarizing pulses to 0 mV for 200 ms from a non-inactivating holding potential (e.g., −120 mV) at a frequency of 0.1 Hz. INaL amplitude and stability were determined by analyzing the mean current amplitude over the final 20 ms of the test pulse. Following steady state block with exemplary compounds (e.g., as described herein), a Na^+ free solution containing an impermeant cation (e.g., Choline or NDMG) was added to confirm the identify of the sodium current.\nResults from this assay relating to percent inhibition of INaL at hNaV1.6 (measured using a procedure similar to described above but using HEK-293 cells expressing recombinant, human Nay 1.6 (h Nay 1.6) at 1 μM are summarized in Table 1 below. In this table, “A” indicates inhibition of less than 30%; “B” indicates inhibition of between about 30% to about 70%; and “C” indicates inhibition of greater than 70%."}
{"smiles": "FC1(F)C[C@@H]1c1ccc(-c2ccn3nncc3c2)cc1", "note": "(single isomer, unassigned) [Compound 23-1]", "values": [{"measurement": "inhibition at 1 µM", "value": "30 to 70", "unit": "%"}]}
{"smiles": "FC1(F)C[C@H]1c1ccc(-c2ccn3nncc3c2)cc1", "note": "(single isomer, unassigned) [Compound 23-2]", "values": [{"measurement": "inhibition at 1 µM", "value": "> 70", "unit": "%"}]}
{"smiles": "Cc1cc(OC(F)(F)F)ccc1-c1ccn2nncc2c1", "note": "[Compound 1, 5-[2-methyl-4-(trifluoromethoxy)phenyl]triazolo[1,5-a]pyridine]", "values": [{"measurement": "inhibition at 1 µM", "value": "30 to 70", "unit": "%"}]}
{"smiles": "COCc1cc(OC(F)(F)F)ccc1-c1ccn2nncc2c1", "note": "[Compound 2]", "values": [{"measurement": "inhibition at 1 µM", "value": "> 70", "unit": "%"}]}
{"smiles": "Cc1cc(OC(F)(F)F)ccc1-c1ccn2nnc(C)c2c1", "note": "[Compound 3]", "values": [{"measurement": "inhibition at 1 µM", "value": "> 70", "unit": "%"}]}
{"smiles": "Cc1cc(OC(F)(F)F)ccc1-c1ccn2nnc(C(F)(F)F)c2c1", "note": "[Compound 4]", "values": [{"measurement": "inhibition at 1 µM", "value": "> 70", "unit": "%"}]}
{"smiles": "Cc1cc(OC(F)(F)F)ccc1-c1cc(C)n2nncc2c1", "note": "[Compound 5]", "values": [{"measurement": "inhibition at 1 µM", "value": "> 70", "unit": "%"}]}
{"smiles": "Cc1nnn2ccc(-c3ccc(C4(C#N)CC4)cc3)cc12", "note": "[Compound 6]", "values": [{"measurement": "inhibition at 1 µM", "value": "30 to 70", "unit": "%"}]}
{"smiles": "Cc1nnn2ccc(-c3ccc(OC(F)(F)F)cc3)cc12", "note": "[Compound 7]", "values": [{"measurement": "inhibition at 1 µM", "value": "> 70", "unit": "%"}]}
{"smiles": "Cc1nnn2ccc(-c3cnc(OCC(F)(F)F)c(F)c3)cc12", "note": "[Compound 8]", "values": [{"measurement": "inhibition at 1 µM", "value": "30 to 70", "unit": "%"}]}
{"smiles": "FC(F)(F)Oc1ccc(-c2ccn3nncc3c2)cc1", "note": "[Compound 9]", "values": [{"measurement": "inhibition at 1 µM", "value": "> 70", "unit": "%"}]}
{"smiles": "Fc1cc(-c2ccn3nncc3c2)cnc1OCC(F)(F)F", "note": "[Compound 10]", "values": [{"measurement": "inhibition at 1 µM", "value": "30 to 70", "unit": "%"}]}
{"smiles": "Fc1cc(-c2ccn3nncc3c2)cnc1OC1CC(F)(F)C1", "note": "[Compound 11]", "values": [{"measurement": "inhibition at 1 µM", "value": "> 70", "unit": "%"}]}
{"smiles": "Cc1nnn2ccc(-c3cnc(OC4CC(F)(F)C4)c(F)c3)cc12", "note": "[Compound 12]", "values": [{"measurement": "inhibition at 1 µM", "value": "> 70", "unit": "%"}]}
{"smiles": "COCc1nnn2ccc(-c3ccc(OC(F)(F)F)cc3C)cc12", "note": "[Compound 13]", "values": [{"measurement": "inhibition at 1 µM", "value": "> 70", "unit": "%"}]}
{"smiles": "FC(F)Oc1ccc(-c2ccn3nncc3c2)cc1", "note": "[Compound 14]", "values": [{"measurement": "inhibition at 1 µM", "value": "30 to 70", "unit": "%"}]}
{"smiles": "FC(F)(F)COc1ccc(-c2ccn3nncc3c2)cn1", "note": "[Compound 15]", "values": [{"measurement": "inhibition at 1 µM", "value": "> 70", "unit": "%"}]}
{"smiles": "COCc1cc(-c2ccn3nncc3c2)ccc1OC(F)(F)F", "note": "[Compound 16]", "values": [{"measurement": "inhibition at 1 µM", "value": "30 to 70", "unit": "%"}]}
{"smiles": "C[C@@H](Oc1ncc(-c2ccn3nncc3c2)cc1F)C(F)(F)F", "note": "[Compound 17, 5-[5-fluoro-6-[(1R)-2,2,2-trifluoro-1-methyl-ethoxy]-3-pyridyl]triazolo[1,5-a]pyridine]", "values": [{"measurement": "inhibition at 1 µM", "value": "> 70", "unit": "%"}]}
{"smiles": "C[C@H](Oc1ncc(-c2ccn3nncc3c2)cc1F)C(F)(F)F", "note": "[Compound 18, 5-[5-fluoro-6-[(15)-2,2,2-trifluoro-1-methyl-ethoxy]-3-pyridyl]triazolo[1,5-a]pyridine]", "values": [{"measurement": "inhibition at 1 µM", "value": "> 70", "unit": "%"}]}
{"smiles": "COCc1nnn2ccc(-c3cnc(OCC(F)(F)F)c(F)c3)cc12", "note": "[Compound 20]", "values": [{"measurement": "inhibition at 1 µM", "value": "30 to 70", "unit": "%"}]}
{"smiles": "Cc1nnn2ccc(-c3cnc(O[C@H](C)C(F)(F)F)c(F)c3)cc12", "note": "[Compound 21]", "values": [{"measurement": "inhibition at 1 µM", "value": "> 70", "unit": "%"}]}
{"smiles": "Cc1nnn2ccc(-c3cnc(O[C@@H](C)C(F)(F)F)c(F)c3)cc12", "note": "[Compound 22]", "values": [{"measurement": "inhibition at 1 µM", "value": "> 70", "unit": "%"}]}
{"smiles": "CC(C)(Oc1ncc(-c2ccn3nncc3c2)cc1F)C(F)(F)F", "note": "[Compound 24]", "values": [{"measurement": "inhibition at 1 µM", "value": "> 70", "unit": "%"}]}
{"smiles": "Cc1nnn2ccc(-c3cnc(OC(C)(C)C(F)(F)F)c(F)c3)cc12", "note": "[Compound 25]", "values": [{"measurement": "inhibition at 1 µM", "value": "> 70", "unit": "%"}]}
{"smiles": "COCc1nnn2ccc(-c3cnc(OC(C)(C)C(F)(F)F)c(F)c3)cc12", "note": "[Compound 26]", "values": [{"measurement": "inhibition at 1 µM", "value": "> 70", "unit": "%"}]}
{"smiles": "COCc1nnn2ccc(-c3cnc(O[C@@H](C)C(F)(F)F)c(F)c3)cc12", "note": "[Compound 27]", "values": [{"measurement": "inhibition at 1 µM", "value": "> 70", "unit": "%"}]}
{"smiles": "COCc1nnn2ccc(-c3cnc(OC4(C(F)(F)F)CCC4)c(F)c3)cc12", "note": "[Compound 29]", "values": [{"measurement": "inhibition at 1 µM", "value": "> 70", "unit": "%"}]}
{"smiles": "C[C@@H](Oc1ncc(-c2ccn3nnc(C(F)(F)F)c3c2)cc1F)C(F)(F)F", "note": "[Compound 30]", "values": [{"measurement": "inhibition at 1 µM", "value": "> 70", "unit": "%"}]}
{"smiles": "C[C@H](Oc1ncc(-c2ccn3nnc(C(F)(F)F)c3c2)cc1F)C(F)(F)F", "note": "[Compound 31]", "values": [{"measurement": "inhibition at 1 µM", "value": "> 70", "unit": "%"}]}
{"smiles": "[2H]c1nnn2ccc(-c3cnc(O[C@H](C)C(F)(F)F)c(F)c3)cc12", "note": "[Compound 32]", "values": [{"measurement": "inhibition at 1 µM", "value": "> 70", "unit": "%"}]}
{"smiles": "[2H]c1nnn2ccc(-c3cnc(O[C@@H](C)C(F)(F)F)c(F)c3)cc12", "note": "[Compound 33]", "values": [{"measurement": "inhibition at 1 µM", "value": "> 70", "unit": "%"}]}
{"smiles": "[2H]c1nnn2ccc(-c3cnc(OCC(F)(F)F)c(F)c3)cc12", "note": "[Compound 34]", "values": [{"measurement": "inhibition at 1 µM", "value": "> 70", "unit": "%"}]}
{"smiles": "[2H]c1nnn2ccc(-c3cnc(OC(C)(C)C(F)(F)F)c(F)c3)cc12", "note": "[Compound 35]", "values": [{"measurement": "inhibition at 1 µM", "value": "> 70", "unit": "%"}]}
{"smiles": "[2H]c1nnn2ccc(-c3cnc(OC4(C(F)(F)F)CCC4)c(F)c3)cc12", "note": "[Compound 36]", "values": [{"measurement": "inhibition at 1 µM", "value": "> 70", "unit": "%"}]}
{"smiles": "C[C@@H](Oc1ncc(-c2ccn3nnc(C(F)F)c3c2)cc1F)C(F)(F)F", "note": "[Compound 37]", "values": [{"measurement": "inhibition at 1 µM", "value": "> 70", "unit": "%"}]}
{"smiles": "C[C@H](Oc1ncc(-c2ccn3nnc(C(F)F)c3c2)cc1F)C(F)(F)F", "note": "[Compound 38]", "values": [{"measurement": "inhibition at 1 µM", "value": "> 70", "unit": "%"}]}
{"smiles": "CC(C)(Oc1ncc(-c2ccn3nnc(C(F)F)c3c2)cc1F)C(F)(F)F", "note": "[Compound 39]", "values": [{"measurement": "inhibition at 1 µM", "value": "> 70", "unit": "%"}]}
{"smiles": "[2H]C([2H])([2H])OCc1nnn2ccc(-c3cnc(OC(C)(C)C(F)(F)F)c(F)c3)cc12", "note": "[Compound 40]", "values": [{"measurement": "inhibition at 1 µM", "value": "> 70", "unit": "%"}]}
{"smiles": "[2H]C([2H])(OC)c1nnn2ccc(-c3cnc(OC(C)(C)C(F)(F)F)c(F)c3)cc12", "note": "[Compound 41]", "values": [{"measurement": "inhibition at 1 µM", "value": "> 70", "unit": "%"}]}
{"smiles": "[2H]C([2H])([2H])c1nnn2ccc(-c3cnc(OC(C)(C)C(F)(F)F)c(F)c3)cc12", "note": "[Compound 42]", "values": [{"measurement": "inhibition at 1 µM", "value": "> 70", "unit": "%"}]}
{"smiles": "COc1cc(OC(F)(F)F)ccc1-c1ccn2nnc(C)c2c1", "note": "[Compound 43]", "values": [{"measurement": "inhibition at 1 µM", "value": "> 70", "unit": "%"}]}
{"smiles": "Cc1cc(-c2cnc(O[C@H](C)C(F)(F)F)c(F)c2)cc2cnnn12", "note": "[Compound 44]", "values": [{"measurement": "inhibition at 1 µM", "value": "30 to 70", "unit": "%"}]}
{"smiles": "Cc1cc(-c2cnc(O[C@@H](C)C(F)(F)F)c(F)c2)cc2cnnn12", "note": "[Compound 45]", "values": [{"measurement": "inhibition at 1 µM", "value": "> 70", "unit": "%"}]}
{"smiles": "Cc1cc(-c2cnc(OCC(F)(F)F)c(F)c2)cc2cnnn12", "note": "[Compound 46]", "values": [{"measurement": "inhibition at 1 µM", "value": "30 to 70", "unit": "%"}]}
